The values below come from ChEMBL document CHEMBL4411303, “Synthesis of tetrazole derivatives bearing pyrrolidine scaffold and evaluation of their antifungal activity against Candida albicans” (Eur J Med Chem, 2019).

Test [1] relates to Candida albicans. The test can be described thus: Cell cycle arrest in Candida albicans ATCC 90028 assessed as accumulation at G0/G1-phase by propidium iodide staining based flow cytometry. Type of test: functional, organism-based.
Test [2] has as its system Candida albicans. The test can be described thus: Antifungal activity against Candida albicans ATCC 90028 assessed as planktonic growth inhibition at 11.38 uM after 48 hrs by M27-A3 protocol based method relative to control. Type of test: functional. The following applies: ATCC 90028, 48 h, read-out: GI.
In test [3] the test system is Candida albicans. Kind of test: Antifungal activity against Candida albicans ATCC 90028 assessed as planktonic growth inhibition at 0.71 uM after 48 hrs by M27-A3 protocol based method relative to control. The format is functional. Conditions: ATCC 90028, 48 h, read-out: GI.
In test [4] the test system is Candida albicans. Kind of test: Antifungal activity against Candida albicans ATCC 90028 assessed as planktonic growth inhibition at 0.36 uM after 48 hrs by M27-A3 protocol based method relative to control. Type of test: functional. Conditions: ATCC 90028, 48 h, read-out: GI.
Test [5] relates to Candida albicans. Kind of test: Antifungal activity against Candida albicans ATCC 90028 infected in Galleria mellonella larvae assessed as inhibition of fungus filamentation at 10 uL measured at 24 hrs interval for 144 hrs by HE staining based microscopic analysis. Type of test: functional, organism-based.
The test system of test [6] is Candida albicans. Kind of test: Antifungal activity against Candida albicans ATCC 90028 assessed as planktonic growth inhibition at 22.76 uM after 48 hrs by M27-A3 protocol based method relative to control. The format is functional. The following applies: ATCC 90028, 48 h, read-out: GI.
Test [7] concerns Candida albicans. The test can be described thus: Antifungal activity against Candida albicans ATCC 90028 assessed as planktonic growth inhibition at 2.85 uM after 48 hrs by M27-A3 protocol based method relative to control. Type of test: functional. The following applies: ATCC 90028, 48 h, read-out: GI.
Test [8] concerns Candida albicans. The test can be described thus: Antifungal activity against Candida albicans ATCC 90028 assessed as planktonic growth inhibition at 0.18 uM after 48 hrs by M27-A3 protocol based method relative to control. The format is functional. Conditions: ATCC 90028, 48 h, read-out: GI.
The subject of test [9] is Candida albicans. Kind of test: Antifungal activity against Candida albicans ATCC 90028 infected in Galleria mellonella larvae assessed as induction of pathogen entrapping by haemocytes at 10 uL measured at 24 hrs interval for 144 hrs by HE staining based microscopic analysis. Type of test: functional, organism-based.
Test [10] concerns Candida albicans. Kind of test: Antifungal activity against Candida albicans ATCC 90028 assessed as planktonic growth inhibition at 1.42 uM after 48 hrs by M27-A3 protocol based method relative to control. The format is functional. The following applies: ATCC 90028, 48 h, read-out: GI.
Test [11] concerns Candida albicans. Kind of test: Fungicidal activity against Candida albicans ATCC 90028 assessed as log reduction in fungal load incubated for 48 hrs followed by replating on sabouraud dextrose agar plate and measured after 48 hrs. The format is functional.
Test [12] concerns Candida albicans. The test can be described thus: Antifungal activity against Candida albicans ATCC 90028 assessed as planktonic growth inhibition at 0.09 uM after 48 hrs by M27-A3 protocol based method relative to control. Type of test: functional. The following applies: ATCC 90028, 48 h, read-out: GI.
The test system of test [13] is Candida albicans. Kind of test: Antifungal activity against Candida albicans ATCC 90028 assessed as planktonic growth inhibition at 45.53 uM after 48 hrs by M27-A3 protocol based method relative to control. Conditions: ATCC 90028, 48 h, read-out: GI. Type of test: functional.
In test [14] the test system is Candida albicans. The test can be described thus: Antifungal activity against Candida albicans ATCC 90028 assessed as planktonic growth inhibition at 5.69 uM after 48 hrs by M27-A3 protocol based method relative to control. Type of test: functional. The following applies: ATCC 90028, 48 h, read-out: GI.
The test system of test [15] is Candida albicans. The test can be described thus: Antifungal activity against Candida albicans ATCC 90028 assessed as planktonic growth inhibition at 0.16 uM after 48 hrs by M27-A3 protocol based method relative to control. The following applies: ATCC 90028, 48 h, read-out: GI. The format is functional.
Test [16] deals with Candida albicans. Kind of test: Antifungal activity against Candida albicans ATCC 90028 assessed as planktonic growth inhibition at 10.37 uM after 48 hrs by M27-A3 protocol based method relative to control. Type of test: functional. Conditions: ATCC 90028, 48 h, read-out: GI.
Test [17] relates to Candida albicans. The test can be described thus: Antifungal activity against Candida albicans ATCC 90028 assessed as planktonic growth inhibition at 0.08 uM after 48 hrs by M27-A3 protocol based method relative to control. The format is functional. The following applies: ATCC 90028, 48 h, read-out: GI.
For test [18], the system named is Candida albicans. The test can be described thus: Antifungal activity against Candida albicans ATCC 90028 assessed as planktonic growth inhibition at 1.3 uM after 48 hrs by M27-A3 protocol based method relative to control. The format is functional. Conditions: ATCC 90028, 48 h, read-out: GI.
The test system of test [19] is Candida albicans. Kind of test: Antifungal activity against Candida albicans ATCC 90028 assessed as planktonic growth inhibition at 5.18 uM after 48 hrs by M27-A3 protocol based method relative to control. Type of test: functional. The following applies: ATCC 90028, 48 h, read-out: GI.
For test [20], the system named is Candida albicans. The test can be described thus: Antifungal activity against Candida albicans ATCC 90028 assessed as planktonic growth inhibition at 20.73 uM after 48 hrs by M27-A3 protocol based method relative to control. Type of test: functional. Conditions: ATCC 90028, 48 h, read-out: GI.
The subject of test [21] is Candida albicans. The test can be described thus: Antifungal activity against Candida albicans ATCC 90028 assessed as planktonic growth inhibition at 0.65 uM after 48 hrs by M27-A3 protocol based method relative to control. Type of test: functional. Conditions: ATCC 90028, 48 h, read-out: GI.
For test [22], the system named is Candida albicans. Kind of test: Antifungal activity against Candida albicans ATCC 90028 assessed as planktonic growth inhibition at 2.59 uM after 48 hrs by M27-A3 protocol based method relative to control. The format is functional. Conditions: ATCC 90028, 48 h, read-out: GI.
The subject of test [23] is Candida albicans. Kind of test: Antifungal activity against Candida albicans ATCC 90028 assessed as planktonic growth inhibition at 0.32 uM after 48 hrs by M27-A3 protocol based method relative to control. Type of test: functional. Conditions: ATCC 90028, 48 h, read-out: GI.
Test [24] deals with Candida albicans. Kind of test: Antifungal activity against Candida albicans ATCC 90028 assessed as planktonic growth inhibition at 41.47 uM after 48 hrs by M27-A3 protocol based method relative to control. Type of test: functional. Conditions: ATCC 90028, 48 h, read-out: GI.
The subject of test [25] is Candida albicans. Kind of test: Antifungal activity against Candida albicans ATCC 90028 assessed as planktonic growth inhibition at 39.77 uM after 48 hrs by M27-A3 protocol based method relative to control. Type of test: functional. The following applies: ATCC 90028, 48 h, read-out: GI.
Test [26] has as its system Candida albicans. The test can be described thus: Antifungal activity against Candida albicans ATCC 90028 assessed as planktonic growth inhibition at 19.88 uM after 48 hrs by M27-A3 protocol based method relative to control. The format is functional. The following applies: ATCC 90028, 48 h, read-out: GI.
Test [27] concerns Candida albicans. Kind of test: Antifungal activity against Candida albicans ATCC 90028 assessed as planktonic growth inhibition at 4.97 uM after 48 hrs by M27-A3 protocol based method relative to control. The format is functional. Conditions: ATCC 90028, 48 h, read-out: GI.
Test [28] has as its system Candida albicans. Kind of test: Antifungal activity against Candida albicans ATCC 90028 assessed as planktonic growth inhibition at 2.49 uM after 48 hrs by M27-A3 protocol based method relative to control. The format is functional. The following applies: ATCC 90028, 48 h, read-out: GI.
The subject of test [29] is Candida albicans. The test can be described thus: Antifungal activity against Candida albicans ATCC 90028 assessed as planktonic growth inhibition at 0.62 uM after 48 hrs by M27-A3 protocol based method relative to control. The following applies: ATCC 90028, 48 h, read-out: GI. Type of test: functional.
The subject of test [30] is Candida albicans. Kind of test: Antifungal activity against Candida albicans ATCC 90028 assessed as planktonic growth inhibition at 0.31 uM after 48 hrs by M27-A3 protocol based method relative to control. Type of test: functional. Conditions: ATCC 90028, 48 h, read-out: GI.
Test [31] concerns Candida albicans. Kind of test: Antifungal activity against Candida albicans ATCC 90028 assessed as planktonic growth inhibition at 1.24 uM after 48 hrs by M27-A3 protocol based method relative to control. Type of test: functional. The following applies: ATCC 90028, 48 h, read-out: GI.
In test [32] the test system is Candida albicans. Kind of test: Antifungal activity against Candida albicans ATCC 90028 assessed as planktonic growth inhibition at 9.94 uM after 48 hrs by M27-A3 protocol based method relative to control. Type of test: functional. Conditions: ATCC 90028, 48 h, read-out: GI.
In test [33] the test system is Candida albicans. The test can be described thus: Antibiofilm activity against Candida albicans ATCC 90028 assessed as inhibition of biofilm formation […] after 24 hrs by XTT assay relative to control. Type of test: functional, organism-based. The following applies: ATCC 90028, 24 h.
Test [34] concerns Candida albicans. The test can be described thus: Antifungal activity against Candida albicans ATCC 90028 assessed as planktonic growth inhibition at 0.27 uM after 48 hrs by M27-A3 protocol based method relative to control. The format is functional. Conditions: ATCC 90028, 48 h, read-out: GI.

The IC50 is the midpoint of a concentration-inhibition curve.

The source made the active and inactive calls. The rule behind the calls is not given here.

In the case of `Fc1ccc(C2CCCN2CCCn2nnc(-c3ccccc3)n2)cc1` (stereo not drawn), the result in test [1] and in [9] was Active. Besides, in [2], the inhibition of growth at 11.38 µM stood at 99.3%. The inhibition of growth at 0.71 µM in [3] was 99.3%. For the same molecule, the inhibition of growth at 0.36 µM in test [4] came to 99.2%. In [5], the inhibition entry is “Active”. In addition, the inhibition of growth at 22.76 µM in test [6] is 99.2%. Moreover, the inhibition of growth at 2.85 µM in [7] was determined as 99.3%. For the same molecule, in test [8], the inhibition of growth at 0.18 µM was 99.2%. The inhibition of growth at 1.42 µM in test [10] amounted to 99.5%. Moreover, in [11], the “log(activity)” value was -0.5. Also, in [12], the inhibition of growth at 0.09 µM amounted to 99.2%. The inhibition of growth at 45.53 µM in test [13] was determined as 99.5%. Also, in [14], the inhibition of growth at 5.69 µM worked out at 99.3%.
Turning to `Fc1ccc(C2CCCN2CCCn2nnc(-c3ccccc3Cl)n2)cc1` (stereo not drawn), the inhibition of growth at 0.16 µM in test [15] is 98.7%. Moreover, the inhibition of growth at 10.37 µM in test [16] amounted to 99.4%. For the same molecule, the inhibition of growth at 0.08 µM in test [17] worked out at 98.6%. Besides, the inhibition of growth at 1.3 µM in [18] was 99.2%. Also, the inhibition of growth at 5.18 µM in [19] was found to be 99.3%. Further, the inhibition of growth at 20.73 µM in test [20] came to 99.5%. Also, the inhibition of growth at 0.65 µM in [21] is 99%. For the same molecule, the “log(activity)” value in test [11] is -0.4. The inhibition of growth at 2.59 µM in test [22] was determined as 99.3%. For the same molecule, the inhibition of growth at 0.32 µM in [23] amounted to 98.9%. Moreover, the inhibition of growth at 41.47 µM in test [24] worked out at 99.6%.
`Clc1ccc(C2CCCN2CCCn2nnc(-c3ccccc3Cl)n2)cc1` (stereo not drawn): the inhibition of growth at 0.16 µM in [15] stood at 98.9%. The inhibition of growth at 39.77 µM in [25] amounted to 99.6%. Also, the inhibition of growth at 19.88 µM in test [26] was determined as 99.5%. Besides, the inhibition of growth at 0.08 µM in test [17] was 98.8%. Besides, the inhibition of growth at 4.97 µM in test [27] was 99.3%. For the same molecule, the inhibition of growth at 2.49 µM in test [28] was found to be 99.3%. The “log(activity)” value in test [11] was -0.4. For the same molecule, in test [29], the inhibition of growth at 0.62 µM stood at 99.2%. The inhibition of growth at 0.31 µM in test [30] is 99%. The inhibition of growth at 1.24 µM in test [31] was found to be 99.2%. Further, the inhibition of growth at 9.94 µM in [32] turned out to be 99.4%.
Consider `C[C@@H]1[C@H](O)[C@@H](C)/C=C/C=C/C=C/C=C/C=C/C=C/C=C/[C@H](O[C@@H]2O[C@H](C)[C@@H](O)[C@H](N)[C@@H]2O)C[C@@H]2O[C@](O)(C[C@@H](O)C[C@@H](O)[C@H](O)CC[C@@H](O)C[C@@H](O)CC(=O)O[C@H]1C)C[C@H](O)[C@H]2C(=O)O` [AMPHOTERICIN B], for which the IC50 in test [33] is 100 µM. In addition, the inhibition of growth at 0.27 µM in [34] came to 100%.
